Measurements: PubChem BioAssay AID1918996 (Molecular Pharmacology Branch, DTP, NCI, 2023)

System: 349418-098-R-PDC complex spheroid growth
Test: Anticancer human tumor 349418-098-R-PDC patient-derived lung adenocarcinoma cell line growth inhibition [AhR]
Conditions: for IC50: curve of first compound; for viability, T/C: stronger effect = lower value
From the text: Multicellular complex tumor spheroid response to aryl hydrocarbon receptor antagonists in combination with a variety of drugs and investigational agents in selected tumor cell lines
The current study was undertaken to assess response to aryl hydrocarbon receptor antagonists in combination with standard-of-care drugs and investigational agents in solid tumor complex spheroid models. Complex spheroids include a stromal component modeled by human endothelial cells (HUVEC) and fibroblasts modeled by human mesenchymal stem cells (MSCs). The concentration ranges selected for each drug and investigational agent were based upon clinically achievable concentrations if the clinical Cmax of the agent was known.
Compounds. The drugs and investigational agents: BAY 2416964 (NSC825713), GNF351 (NSC835774), CH-223191 (NSC835775), CPI-455 (NSC825282), aza-TdCyd (NSC777586), decitabine (NSC127716), belinostat (NSC758774), entinostat (NSC756642), pevonedistat (NSC761192), tazemetostat (NSC777109), talazoparib (NSC765396), olaparib (NSC753686), selinexor (NSC780203), nedisertib (M3814, NSC802822), bortezomib (NSC756655), venetoclax (NSC766270), doxorubicin (NSC123127), elimusertib (BAY189344, NSC800525), ceralasertib (AZD6738, NSC777638), TAK-243 (NSC785004), alisertib (NSC759677), etoposide (NSC141540), topotecan (NSC609699), eribulin (NSC707389), gemcitabine (NSC613327), carboplatin (NSC241240), cisplatin (NSC119875), and SN-38 (NSC673596) were obtained from the National Cancer Institute (NCI) Developmental Therapeutics Program Chemical Repository (32). The FDA-approved anticancer drug set is available from the Developmental Therapeutics Program at https://dtp.cancer.gov/organization/dscb/obtaining/available plates.htm. […] The stock solutions were prepared in dimethyl sulfoxide (DMSO, Sigma-Aldrich, St. Louis, MO, cat. D2650), except for the platinum compounds which were prepared in saline (Quality Biological, Gaithersburg, MD, cat. 114-055-101), at 800-fold the tested concentration and stored at -70 degrees C prior to their use. All drugs and investigational agents were tested over a range starting from a high concentration at or near the clinical Cmax and decreasing in half-log increments. If the clinical Cmax for an agent had not been determined, the highest concentration tested was 10 microM (Table 1).
Cell Culture. All cells were maintained in an incubator at 37 degrees C and 5% CO2 with 95% humidity. The PDC lines were cultured according to standard operating procedures established by the NCI PDMR (https://pdmr.cancer.gov). Briefly, all PDCs were thawed and cultured in Matrigel-coated flasks prepared with a working solution of 1X Ham's F-12 nutrient mix, without supplementation (Invitrogen, Waltham, MA, cat. 11765054), 100 U/mL penicillin-streptomycin (Invitrogen, cat. 15140122), and 2.5% Matrigel (Corning Inc., Corning, NY, cat. 354248) for the first three passages. All PDCs were cultured in complete DMEM/F-12 media containing advanced DMEM/F-12 (Invitrogen, cat. 12634028), 4.9% defined fetal bovine serum, heat inactivated (HyClone Laboratories Inc., Logan, UT, cat. SH30070.03HI), 389 ng/mL hydrocortisone (Sigma-Aldrich, cat. H4001), 9.7 ng/mL human EGF recombinant protein (Invitrogen, cat. PHG0313), 23.4 microg/mL adenine (Sigma-Aldrich, cat. A2786), 97.3 U/mL penicillin-streptomycin (Invitrogen, cat. 15140122), 1.9 mM L-glutamine (Invitrogen, cat. 25030081), and 9.7 microM Y-27632 dihydrochloride (Tocris Bioscience, Bristol, United Kingdom, cat. 1254). The PDCs were cultured in complete DMEM/F12 media without 10 microM Y-27632 dihydrochloride for at least two passages prior to the screen. The established cell lines NCI-H1341 and […] were cultured in DMEM/F-12, HEPES (Invitrogen, cat. 11330032), 5% defined fetal bovine serum (HyClone Laboratories Inc., cat. SH30070.03), ITS premix universal culture supplement [insulin (5 microg/mL), transferrin (5 microg/mL), and selenious acid (5 ng/mL)] […]

[1] = second compound 0.1 µM, first compound 0.0316 µM
[2] = second compound 0.1 µM, first compound 0.1 µM
[3] = second compound 0.1 µM, first compound 0.316 µM
[4] = second compound 0.1 µM, first compound 1 µM
[5] = second compound 0.1 µM, first compound 3.16 µM
[6] = second compound 0.1 µM, first compound 10 µM
[7] = second compound 0.316 µM, first compound 0.0316 µM
[8] = second compound 0.316 µM, first compound 0.1 µM
[9] = second compound 0.316 µM, first compound 0.316 µM
[10] = second compound 0.316 µM, first compound 1 µM
[11] = second compound 0.316 µM, first compound 3.16 µM
[12] = second compound 0.316 µM, first compound 10 µM
[13] = second compound 1 µM, first compound 0.0316 µM
[14] = second compound 1 µM, first compound 0.1 µM
[15] = second compound 1 µM, first compound 0.316 µM
[16] = second compound 1 µM, first compound 1 µM
[17] = second compound 1 µM, first compound 3.16 µM
[18] = second compound 1 µM, first compound 10 µM
[19] = second compound 3.16 µM, first compound 0.0316 µM
[20] = second compound 3.16 µM, first compound 0.1 µM
[21] = second compound 3.16 µM, first compound 0.316 µM
[22] = second compound 3.16 µM, first compound 1 µM
[23] = second compound 3.16 µM, first compound 3.16 µM
[24] = second compound 3.16 µM, first compound 10 µM
[25] = second compound 10 µM, first compound 0.0316 µM
[26] = second compound 10 µM, first compound 0.1 µM
[27] = second compound 10 µM, first compound 0.316 µM
[28] = second compound 10 µM, first compound 1 µM
[29] = second compound 10 µM, first compound 3.16 µM
[30] = second compound 10 µM, first compound 10 µM
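Also: spheroids exposed to agents for seven days before luminescence viability read.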
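For viability, T/C in this document: spheroids also contain HUVEC endothelial cells and human MSC stroma.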

Row | Structure (SMILES) | IC50 (second compound 0.1 µM) [nM] | IC50 (second compound 0.316 µM) [nM] | IC50 (second compound 1 µM) [nM] | IC50 (second compound 3.16 µM) [nM] | IC50 (second compound 10 µM) [nM] | viability, T/C [1] [%] | viability, T/C [2] [%] | viability, T/C [3] [%] | viability, T/C [4] [%] | viability, T/C [5] [%] | viability, T/C [6] [%] | viability, T/C [7] [%] | viability, T/C [8] [%] | viability, T/C [9] [%] | viability, T/C [10] [%] | viability, T/C [11] [%] | viability, T/C [12] [%] | viability, T/C [13] [%] | viability, T/C [14] [%] | viability, T/C [15] [%] | other results
1 | Nc1ccccc1NC(=O)c1ccc(CNC(=O)OCc2cccnc2)cc1 + CC(CO)NC(=O)c1cc(-c2ccc(Cl)cc2)nn(-c2cnn(C)c2)c1=O | 873 | 1050 | 1060 | 1000 | 438 | 82.8 | 110 | 73.4 | 45.7 | 23.3 | 7.92 | 114 | 98.5 | 81.7 | 51.4 | 22.7 | 6.83 | 104 | 104 | 80.9 | viability, T/C [16]: 50.8%; viability, T/C [17]: 23.9%; viability, T/C [18]: 7.01%; viability, T/C [19]: 79.5%; viability, T/C [20]: 104%; viability, T/C [21]: 65.4%; viability, T/C [22]: 52.9%; viability, T/C [23]: 22.1%; viability, T/C [24]: 7.39%; viability, T/C [25]: 54.1%; viability, T/C [26]: 68.4%; viability, T/C [27]: 50.7%; viability, T/C [28]: 39.8%; viability, T/C [29]: 18.8%; viability, T/C [30]: 5.36%
2 | O=C(c1cc(Cc2n[nH]c(=O)c3ccccc23)ccc1F)N1CCN(C(=O)C2CC2)CC1 + CC(CO)NC(=O)c1cc(-c2ccc(Cl)cc2)nn(-c2cnn(C)c2)c1=O | > 10000 | 5210 | 7430 | 3540 | 482 | 84.2 | 81.6 | 82.8 | 101 | 64.2 | 60.1 | 101 | 101 | 89.7 | 64.4 | 63.6 | 39.2 | 95.5 | 74.4 | 73.7 | viability, T/C [16]: 66.9%; viability, T/C [17]: 59.8%; viability, T/C [18]: 44.8%; viability, T/C [19]: 85.4%; viability, T/C [20]: 87.9%; viability, T/C [21]: 77.9%; viability, T/C [22]: 61.2%; viability, T/C [23]: 55.2%; viability, T/C [24]: 33.7%; viability, T/C [25]: 42.1%; viability, T/C [26]: 60.6%; viability, T/C [27]: 58.6%; viability, T/C [28]: 43.5%; viability, T/C [29]: 38.3%; viability, T/C [30]: 33.7%
